Legend:
Mus musculus [1] = assay: Analgesic activity in Swiss albino mouse assessed as time of licking paws at 100 mg/kg, po measured after 2 hrs by tail flick test relative to control; type: functional
Mus musculus [2] = assay: Antiinflammatory activity in Swiss albino mouse assessed as inhibition of carrageenan-induced paw edema at 50 mg/kg, po administered 1 hr prior to carrageenan challenge measured after 2 hrs relative to control; type: functional; parameters: scale not given: the % may be the effect or the level left
Mus musculus [3] = assay: Acute toxicity in Swiss albino mouse assessed as behavioral changes at 50 to 100 mg/kg, po measured up to 14 days; type: organism-based; parameters: dose 50-100 mg/kg, route oral; settings: in vivo, 336 h
Mus musculus [4] = assay: Analgesic activity in Swiss albino mouse assessed as latancy of withdrawing tail at 50 mg/kg, po measured after 2 hrs by tail flick test relative to control; type: functional
Mus musculus [5] = assay: Gastrointestinal toxicity in Swiss albino mouse assessed as ulcer index at 100 mg/kg, po measured after 2 hrs; type: organism-based; parameters: dose 100 mg/kg, route oral; settings: in vivo
Mus musculus [6] = assay: Analgesic activity in Swiss albino mouse assessed as time of licking paws at 50 mg/kg, po measured after 2 hrs by tail flick test relative to control; type: functional
Mus musculus [7] = assay: Analgesic activity in Swiss albino mouse assessed as latancy of withdrawing tail at 100 mg/kg, po measured after 2 hrs by tail flick test relative to control; type: functional
Mus musculus [8] = assay: Acute toxicity in Swiss albino mouse assessed as mortality at 50 to 100 mg/kg, po measured after 6 hrs to 14 days; type: organism-based; parameters: dose 50-100 mg/kg, route oral; settings: in vivo
Mus musculus [9] = assay: Antiinflammatory activity in Swiss albino mouse assessed as inhibition of carrageenan-induced paw edema at 100 mg/kg, po administered 1 hr prior to carrageenan challenge measured after 2 hrs relative to control; type: functional; parameters: scale not given: the % may be the effect or the level left
Mus musculus [10] = assay: Gastrointestinal toxicity in Swiss albino mouse assessed as ulcer index at 50 mg/kg, po measured after 2 hrs; type: organism-based; parameters: dose 50 mg/kg, route oral; settings: in vivo
Mus musculus [11] = assay: Acute toxicity in Swiss albino mouse assessed as weight loss at 50 to 100 mg/kg, po measured up to 14 days; type: organism-based; parameters: dose 50-100 mg/kg, route oral; settings: in vivo, 336 h

With `COc1ccc2cc(C(C)c3nc4s/c(=C\c5ccc(OCc6ccccc6)cc5)c(=O)n4n3)ccc2c1` (stereo unspecified) the MPE (Mus musculus [1]) was 14.5%, the Activity (Mus musculus [2]) was 44.5% and the Activity (Mus musculus [3]) was “Non-toxic”. It also gave an MPE (Mus musculus [4]) of 24.4%, a UI (Mus musculus [5]) of 2.7 and an MPE (Mus musculus [6]) of 23.6%. For the same compound, the MPE (Mus musculus [7]) was 28.1%, the Activity (Mus musculus [8]) was “Non-toxic” and the Activity (Mus musculus [9]) was 32.5%. The UI (Mus musculus [10]) was 3 and the Activity (Mus musculus [11]) was “Non-toxic”.

In the case of `COc1ccc2cc(C(C)c3nc4s/c(=C\c5ccc(C)o5)c(=O)n4n3)ccc2c1` (stereo unspecified), the MPE (Mus musculus [1]) is reported as 35.3%, the Activity (Mus musculus [2]) is reported as 41% and the Activity (Mus musculus [3]) is reported as “Non-toxic”. It also gave an MPE (Mus musculus [4]) of 38.1%, a UI (Mus musculus [5]) of 2.7 and an MPE (Mus musculus [6]) of 23.9%. The MPE (Mus musculus [7]) was 48.6%, the Activity (Mus musculus [8]) was “Non-toxic” and the Activity (Mus musculus [9]) was 37%. The UI (Mus musculus [10]) was 1.3 and the Activity (Mus musculus [11]) was “Non-toxic”.

In the case of `COc1ccc2cc(C(C)c3nc4s/c(=C\c5cn(C(C)=O)c6ccccc56)c(=O)n4n3)ccc2c1` (stereo unspecified), the MPE (Mus musculus [1]) is reported as 18.7%, the Activity (Mus musculus [2]) is reported as 37.7% and the Activity (Mus musculus [3]) is reported as “Non-toxic”. It also gave an MPE (Mus musculus [4]) of 30.8%, a UI (Mus musculus [5]) of 2.4 and an MPE (Mus musculus [6]) of 17.5%. For the same compound, the MPE (Mus musculus [7]) was 28.3%, the Activity (Mus musculus [8]) was “Non-toxic” and the Activity (Mus musculus [9]) was 43.3%. The UI (Mus musculus [10]) was 2.7 and the Activity (Mus musculus [11]) was “Non-toxic”.

With `COc1ccc2cc(C(C)c3nc4s/c(=C\c5ccccc5OCc5ccccc5)c(=O)n4n3)ccc2c1` (stereo unspecified) the MPE (Mus musculus [1]) was 25.2%, the Activity (Mus musculus [2]) was 43% and the Activity (Mus musculus [3]) was “Non-toxic”. It also gave an MPE (Mus musculus [4]) of 18.9%, a UI (Mus musculus [5]) of 2.6 and an MPE (Mus musculus [6]) of 17.7%. The MPE (Mus musculus [7]) was 18%, the Activity (Mus musculus [8]) was “Non-toxic” and the Activity (Mus musculus [9]) was 33.9%. The UI (Mus musculus [10]) was 2.4 and the Activity (Mus musculus [11]) was “Non-toxic”.

For `COc1ccc2cc(C(C)c3nc4s/c(=C\c5ccco5)c(=O)n4n3)ccc2c1` (stereo unspecified), the MPE (Mus musculus [1]) was 22%, the Activity (Mus musculus [2]) was 15.2% and the Activity (Mus musculus [3]) was “Non-toxic”. It also gave an MPE (Mus musculus [4]) of 13.3%, a UI (Mus musculus [5]) of 1.9 and an MPE (Mus musculus [6]) of 19.7%. For the same compound, the MPE (Mus musculus [7]) was 19.3%, the Activity (Mus musculus [8]) was “Non-toxic” and the Activity (Mus musculus [9]) was 26%. The UI (Mus musculus [10]) was 2.6 and the Activity (Mus musculus [11]) was “Non-toxic”.

For `COc1ccc2cc(C(C)c3nc4s/c(=C\c5cccs5)c(=O)n4n3)ccc2c1` (stereo unspecified), the MPE (Mus musculus [1]) was 21.3%, the Activity (Mus musculus [2]) was 21.7% and the Activity (Mus musculus [3]) was “Non-toxic”. For the same compound, the MPE (Mus musculus [4]) was 10.5%, the UI (Mus musculus [5]) was 2.3 and the MPE (Mus musculus [6]) was 16.2%. The MPE (Mus musculus [7]) was 24.9%, the Activity (Mus musculus [8]) was “Non-toxic” and the Activity (Mus musculus [9]) was 21.2%. For the same compound, the UI (Mus musculus [10]) was 2.6 and the Activity (Mus musculus [11]) was “Non-toxic”.

For `COc1ccc2cc(C(C)c3n[nH]c(=S)[nH]3)ccc2c1` (stereo unspecified), the MPE (Mus musculus [1]) was 8.2%, the Activity (Mus musculus [2]) was 30.1% and the Activity (Mus musculus [3]) was “Non-toxic”. For the same compound, the MPE (Mus musculus [4]) was 16.8%, the UI (Mus musculus [5]) was 2.3 and the MPE (Mus musculus [6]) was 18.7%. For the same compound, the MPE (Mus musculus [7]) was 22.2%, the Activity (Mus musculus [8]) was “Non-toxic” and the Activity (Mus musculus [9]) was 21.3%. The UI (Mus musculus [10]) was 2.1 and the Activity (Mus musculus [11]) was “Non-toxic”.

`COc1ccc2c3c1O[C@H]1C(=O)CC[C@@]4(O)[C@@H](C2)N(C)CC[C@]314` [OXYCODONE] showed an MPE (Mus musculus [1]) of 52.9%, an Activity (Mus musculus [2]) of 0.9% and an MPE (Mus musculus [4]) of 63.3%. For the same compound, the UI (Mus musculus [5]) was 1.5, the MPE (Mus musculus [6]) was 52.9% and the MPE (Mus musculus [7]) was 66.9%. It also gave an Activity (Mus musculus [9]) of 3.9% and a UI (Mus musculus [10]) of 1.5.

`COc1ccc2cc(C(C)c3nc4s/c(=C\c5cc(Br)cs5)c(=O)n4n3)ccc2c1` (stereo unspecified) was tested, and the MPE (Mus musculus [1]) was 21.2%, the Activity (Mus musculus [2]) was 43% and the Activity (Mus musculus [3]) was “Non-toxic”. For the same compound, the MPE (Mus musculus [4]) was 28.7%, the UI (Mus musculus [5]) was 2.9 and the MPE (Mus musculus [6]) was 20.1%. The MPE (Mus musculus [7]) was 19%, the Activity (Mus musculus [8]) was “Non-toxic” and the Activity (Mus musculus [9]) was 32.3%. For the same compound, the UI (Mus musculus [10]) was 2.9 and the Activity (Mus musculus [11]) was “Non-toxic”.

Compound `COc1ccc2cc([C@H](C)C(=O)O)ccc2c1` [NAPROXEN] has an MPE (Mus musculus [1]) of 38.6%, an Activity (Mus musculus [2]) of 49.2% and an MPE (Mus musculus [4]) of 47.6%. It also gave a UI (Mus musculus [5]) of 4.2, an MPE (Mus musculus [6]) of 39.3% and an MPE (Mus musculus [7]) of 49.4%. It also gave an Activity (Mus musculus [9]) of 53.3% and a UI (Mus musculus [10]) of 3.6.

In the case of `COc1ccc2cc(C(C)c3nc4s/c(=C\c5cccc(OC(C)=O)c5)c(=O)n4n3)ccc2c1` (stereo unspecified), the MPE (Mus musculus [1]) is reported as 20.7%, the Activity (Mus musculus [2]) is reported as 31.6% and the Activity (Mus musculus [3]) is reported as “Non-toxic”. For the same compound, the MPE (Mus musculus [4]) was 19.2%, the UI (Mus musculus [5]) was 2.4 and the MPE (Mus musculus [6]) was 17.5%. The MPE (Mus musculus [7]) was 20%, the Activity (Mus musculus [8]) was “Non-toxic” and the Activity (Mus musculus [9]) was 29.1%. The UI (Mus musculus [10]) was 2.9 and the Activity (Mus musculus [11]) was “Non-toxic”.

For `COc1ccc2cc(C(C)c3nc4s/c(=C\c5ccccc5OC(C)=O)c(=O)n4n3)ccc2c1` (stereo unspecified), the MPE (Mus musculus [1]) was 27%, the Activity (Mus musculus [2]) was 26.6% and the Activity (Mus musculus [3]) was “Non-toxic”. The MPE (Mus musculus [4]) was 27.8%, the UI (Mus musculus [5]) was 3 and the MPE (Mus musculus [6]) was 19.8%. For the same compound, the MPE (Mus musculus [7]) was 13.3%, the Activity (Mus musculus [8]) was “Non-toxic” and the Activity (Mus musculus [9]) was 44.9%. For the same compound, the UI (Mus musculus [10]) was 2.9 and the Activity (Mus musculus [11]) was “Non-toxic”.

In the case of `COc1ccc2cc(C(C)c3nc4s/c(=C\c5ccc(OC(C)=O)cc5)c(=O)n4n3)ccc2c1` (stereo unspecified), the MPE (Mus musculus [1]) is reported as 19.9%, the Activity (Mus musculus [2]) is reported as 36.2% and the Activity (Mus musculus [3]) is reported as “Non-toxic”. It also gave an MPE (Mus musculus [4]) of 23.3%, a UI (Mus musculus [5]) of 2.7 and an MPE (Mus musculus [6]) of 24.9%. For the same compound, the MPE (Mus musculus [7]) was 18.2%, the Activity (Mus musculus [8]) was “Non-toxic” and the Activity (Mus musculus [9]) was 33.6%. For the same compound, the UI (Mus musculus [10]) was 2.9 and the Activity (Mus musculus [11]) was “Non-toxic”.

For `COc1ccc2cc(C(C)c3nc4s/c(=C\C=C\c5ccccc5)c(=O)n4n3)ccc2c1` (stereo unspecified), the MPE (Mus musculus [1]) was 24.8%, the Activity (Mus musculus [2]) was 36.2% and the Activity (Mus musculus [3]) was “Non-toxic”. The MPE (Mus musculus [4]) was 28.4%, the UI (Mus musculus [5]) was 3.2 and the MPE (Mus musculus [6]) was 15.8%. The MPE (Mus musculus [7]) was 30.9%, the Activity (Mus musculus [8]) was “Non-toxic” and the Activity (Mus musculus [9]) was 37%. The UI (Mus musculus [10]) was 2.4 and the Activity (Mus musculus [11]) was “Non-toxic”.

`COc1ccc2cc(C(C)c3nc4s/c(=C\c5cccc(OCc6ccccc6)c5)c(=O)n4n3)ccc2c1` (stereo unspecified) was tested, and the MPE (Mus musculus [1]) was 19.2%, the Activity (Mus musculus [2]) was 37.9% and the Activity (Mus musculus [3]) was “Non-toxic”. It also gave an MPE (Mus musculus [4]) of 24.8%, a UI (Mus musculus [5]) of 2.9 and an MPE (Mus musculus [6]) of 21.5%. The MPE (Mus musculus [7]) was 22.3%, the Activity (Mus musculus [8]) was “Non-toxic” and the Activity (Mus musculus [9]) was 34.4%. For the same compound, the UI (Mus musculus [10]) was 2.9 and the Activity (Mus musculus [11]) was “Non-toxic”.

`COc1ccc2cc(C(C)c3nc4s/c(=C\c5ccc6ccccc6c5)c(=O)n4n3)ccc2c1` (stereo unspecified) was tested, and the MPE (Mus musculus [1]) was 30.3%, the Activity (Mus musculus [2]) was 37.9% and the Activity (Mus musculus [3]) was “Non-toxic”. For the same compound, the MPE (Mus musculus [4]) was 30%, the UI (Mus musculus [5]) was 3.4 and the MPE (Mus musculus [6]) was 17.7%. The MPE (Mus musculus [7]) was 32.2%, the Activity (Mus musculus [8]) was “Non-toxic” and the Activity (Mus musculus [9]) was 44.9%. The UI (Mus musculus [10]) was 2 and the Activity (Mus musculus [11]) was “Non-toxic”.

For `COc1ccc2cc(C(C)c3nc4s/c(=C\c5sccc5C)c(=O)n4n3)ccc2c1` (stereo unspecified), the MPE (Mus musculus [1]) was 18.3%, the Activity (Mus musculus [2]) was 22.5% and the Activity (Mus musculus [3]) was “Non-toxic”. It also gave an MPE (Mus musculus [4]) of 15.2%, a UI (Mus musculus [5]) of 2.7 and an MPE (Mus musculus [6]) of 13.5%. For the same compound, the MPE (Mus musculus [7]) was 10.2%, the Activity (Mus musculus [8]) was “Non-toxic” and the Activity (Mus musculus [9]) was 19.7%. For the same compound, the UI (Mus musculus [10]) was 2.6 and the Activity (Mus musculus [11]) was “Non-toxic”.
